Results reported in patent publication US8076485B2, “Methylphenidate derivatives and uses of them” (priority 2005, dated 2011).

Key:
[1] = test system: IL-8; assay: IL-8 release by LPS-stimulated HUVECs (ELISA); type: cell-based, human; details: 15 μg/ml
Description: Passage 4 HUVECs, lot number 9713, were put into the wells of a 48-well tissue culture plate at 20,000 cells/well in 500 μl of EGM-2 complete medium (but without serum or ascorbate) supplemented with ITSS (insulin, transferrin and sodium selenite) (obtained from Sigma). Also, passage 4 HUVECs, human source lot number 7016 (obtained from ATCC), were put into the wells of a 48-well tissue culture plate at 20,000 cells/well in 500 μl of EGM-2 complete medium (but without serum or ascorbate) supplemented with ITSS. The following additives were added to the cells: water (vehicle control) and 15 μg/ml of the compound of formula II (Cpd II). After incubation for 1 hour at 37° C. and 5% CO2, LPS was added to give a final concentration of 200 ng/ml, and the cells were incubated overnight at 37° C. and 5% CO2. After this incubation, the supernatants were collected, and the amount of IL-8 in the supernatants determined by ELISA as described in Example 4.

[2] = test system: HUVECs; assay: HUVEC proliferation (Promega cell titer assay); type: cell-based, human; details: 48 hours; for Mean OD at 530 nm: HUVECs
Description: Passage 4 HUVECs, lot number 9713, in either EGM-2 plus 50 ng/ml vascular endothelial growth factor (VEGF) (obtained from Sigma) or in EGM-2 complete medium (containing 2% FCS, hydrocortisone, human fibroblast growth factor B, VEGF, recombinant insulin-like growth factor-1, ascorbate, human […], gentamycin and heparin) (obtained from Cambrex) were put into the wells of a 96-well tissue culture plate at 5,000 cells/well. The following additives were added to the cells: water (vehicle control); 5 μg/ml of the compound of formula II (Cpd II); 15 μg/ml Cpd II; or 30 μg/ml of Cpd II. After 48 hours of culture at 37° C. and 5% CO2, cell proliferation was evaluated by the Promega cell titer assay as described in Example 1, except that the plates were incubated for only 2 hours after addition of the Promega cell titer reagent.

[3] = test system: IL-8; assay: IL-8 production by CD3/CD28-activated TRiPS cell line (ELISA); type: cell-based, human; details: 15 μg/ml; CD3/CD28 Dynabeads, 24 hours
[4] = test system: human umbilical vein endothelial cells (HUVECs); assay: HUVEC tube formation assay; type: cell-based; details: 18 hours, 5% FCS, 30 μg Cpd II or MP in 1 ml, LY 294002 50 μM
Description: Passage 4 (i.e., […]) human umbilical vein endothelial cells (HUVECs), human source lot number 9713 (obtained from ATCC) in 1 ml of endothelial growth medium-2 (EGM-2) (obtained from Cambrex) were mixed with 30 μg of the compound of formula II (Cpd II) in endothelial basal medium-2 (EBM-2) (Cambrex) or 30 μg methylphenidate (MP) in EBM-2. Water (vehicle for the two test compounds) was used as a control, and the PI3 kinase inhibitor, LY 294002 (Sigma), at 50 μM, was included as a positive control. Then, the cells were seeded at 10,000 cells/well into the wells of a plate contained in a tube formation assay kit obtained from BD Biosciences, Rockville, Md. The wells of the plate contained an extracellular matrix protein gel. Fetal calf serum (FCS) (ATCC) was added to a final concentration of 5% to initiate tube formation. Then, the plates were incubated for 18 hours at 37° C. and 5% CO2. Following the incubation, the plates were photographed with a digital camera attached to an inverted microscope (Olympus IMT-2 set at a phase contrast (PC) of 10).
When endothelial cells are cultured on extracellular matrix protein gels in the presence of angiogenic signals, they arrange themselves into structures loosely resembling capillary blood vessels. […]

[5] = test system: peripheral blood lymphocytes (PBL); assay: PHA-induced cell clumping of PBL; type: cell-based, human; details: Example 1, PBL of donor GR283; compound 5, 15, 50 μg/ml; 5 μg/ml PHA; 72 hours
Description: Whole blood was drawn from GR283, a human volunteer with known allergies, into a glass vacutainer tube containing no anticoagulant. This blood was allowed to clot, and the serum was removed by centrifugation and then heat inactivated by placing it in a water bath at 56° C. for 30 minutes. Whole blood from GR283 was also drawn into a glass vacutainer tube containing heparin and used for peripheral blood lymphocytes (PBL) isolation as follows. Whole blood was layered over room temperature Histopaque 1077 solution and centrifuged at 2000 rpm for 15 minutes at room temperature. Cells at the plasma-Histopaque interface were then removed and washed with culture medium (IMDM medium with 10% heat-inactivated GR283 serum plus 1% penicillin/streptomycin) at 37° C.
The compound of formula II (see above) and methylphenidate (both obtained from Dr. Jeffrey D. Winkler, University of Pennsylvania, Philadelphia, Pa.) in culture medium were added to wells of a 96-well plate to give final concentrations of 5 μg/ml, 15 μg/ml and 50 μg/ml of the compound of formula II and of methylphenidate. […] Then, GR283's PBL in culture medium were added to the wells to give a final concentration of 150,000 cells per well, and the plates were incubated at 37° C., 5% CO2 for 24 hours. […]

[6] = mice; cited from earlier work

For COC(=O)C(c1ccc(-c2ccccc2)cc1)C1CCCCN1 (stereo not drawn) [Cpd II], which “IL-8 (pg/ml)” value ([1]; 7016 HUVECs, LPS 200 ng/ml overnight, LPS only 53.3) is on record?
The value was “Below detection”.

What about the “IL-8 release” value ([1]; 7016 HUVECs, LPS 200 ng/ml) of the same molecule?
Its value is “complete eliminated IL-8 release”.

And the “decrease of IL-8 release” value ([1]; 9713 HUVECs, LPS 200 ng/ml)?
The value was 90%.

What about the “number of cells detected in the wells” value ([2]; HUVECs, 5, 15, 30 μg/ml) of the same molecule?
Its value is “reduced the number of cells detected in the wells in a dose-dependent manner”.

What about the “Mean OD at 530 nm” value ([2]; EGM-2 + VEGF, 5 μg/ml, vehicle 0.224 ± 0.011) of the same molecule?
Its value is 0.189 ± 0.014.

And the “Mean OD at 530 nm” value ([2]; EGM-2 + VEGF, 15 μg/ml, vehicle 0.224 ± 0.011)?
The value was 0.132 ± 0.022.

And the “Mean OD at 530 nm” value ([2]; EGM-2 + VEGF, 30 μg/ml, vehicle 0.224 ± 0.011)?
The value was 0.046 ± 0.012.

And the “Mean OD at 530 nm” value ([2]; EGM-2 + growth factors, 5 μg/ml, vehicle 0.299 ± 0.011)?
The value was 0.271 ± 0.022.

What about the “Mean OD at 530 nm” value ([2]; EGM-2 + growth factors, 15 μg/ml, vehicle 0.299 ± 0.011) of the same molecule?
The value was 0.239 ± 0.019.

What about the “Mean OD at 530 nm” value ([2]; EGM-2 + growth factors, 30 μg/ml, vehicle 0.299 ± 0.011) of the same molecule?
The value was 0.066 ± 0.003.

And the “IL-8 production by the TRiPS cell line” value [3]?
The value was “no effect”.

And the “tube formation (branching and cellular interaction of endothelial cells)” value [4]?
Its value is “reduced the amount of branching and cellular interaction”.

What about the “amount of cell clumping induced by PHA” value [5] of the same molecule?
Its value is “reduced the amount of cell clumping induced by 5 μg/ml PHA in a dose-dependent manner”.

Which carcinogenicity [6] does the source give for COC(=O)C(c1ccccc1)C1CCCCN1 (stereo not drawn) [methylphenidate] here?
The carcinogenicity was “some evidence that methylphenidate is carcinogenic in mice”.

And the “tube formation (branching and cellular interaction of endothelial cells)” value [4]?
Its value is “no observable effect”.
